Format in all cases: in vivo
The target of data set [1] is T1, GDF15 (Mus musculus, UniProt Q9Z0J7).
T1 construct: Naive non-tumor-bearing, 8-week old, female, ICR-Scid mice; from tissue; host or cells: whole animal: ICR-Scid mice (endogenous circulating GDF15)
T1 sequence (Q9Z0J7 189-303): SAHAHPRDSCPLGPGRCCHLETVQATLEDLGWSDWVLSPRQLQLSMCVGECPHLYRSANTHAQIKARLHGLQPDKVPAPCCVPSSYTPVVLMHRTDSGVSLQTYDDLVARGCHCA
As to conditions: ICR-Scid mice. Here is the method:
Naive non-tumor-bearing, 8-week old, female, ICR-Scid mice were treated with carboplatin (60 mpk) by intra-peritoneal injection on Day 0 and Day 3 of this experiment. On Day 2, after mice experience 8% body weight loss, mice were randomized into two groups of ten mice each. One group received carboplatin (60 mpk) plus (1) vehicle or carboplatin (60 mpk) plus (2) rabbit monoclonal antibody raised against murine anti-GDF15 antibody, R-23 (20 mpk) by intra-peritoneal injection on Day 2 and Day 4. In the absence of GDF15 inhibition, 80% of the mice died due to cachexia caused by the carboplatin agent over a period of 8 days.

Data set [2] deals with T1, GDF15. The note with it: non-tumor-bearing ICR-Scid mice; cisplatin 3 mpk i.p. twice a week + vehicle; over 9 days. Here is the method: Naive non-tumor-bearing, 8-week old, female, ICR-Scid mice were treated with cisplatin (3 mpk) twice a week by intra-peritoneal injection. Body weight was measured daily. After 2 doses of cisplatin (day 0 of the experiment) mice were randomized into two groups of ten mice each. One group received cisplatin 3 mpk plus (1) vehicle; or cisplatin 3 mpk with (2) rabbit monoclonal antibody raised against murine anti-GDF15 antibody, R-23 twice a week (20 mpk) by intra-peritoneal injection. In the absence of GDF15 inhibition, 80% of the mice die due to cachexia caused by the cisplatin agent over a period of 9 days.

Data set [3] has as its target T1, GDF15. As to conditions: ICR-Scid mice. Here is the method:
Naive non-tumor-bearing, 8-week old, female, ICR-Scid mice were treated daily with oxaliplatin (3 mpk) by intra-peritoneal injection. On Day 3, after mice experience 8% body weight loss, mice were randomized into two groups of ten mice each. One group received oxaliplatin (3 mpk) plus (1) vehicle; or oxaliplatin (3 mpk) plus (2) rabbit monoclonal antibody raised against murine anti-GDF15 antibody, R-23 (20 mpk). Antibody or vehicle was dosed on Day 3, 5, 7, 9 by intra-peritoneal injection. In the absence of GDF15 inhibition, 45% of the mice die due to cachexia caused by the oxaliplatin agent over a period of 10 days.
This is another data set of the same source.

The test system of data set [4] is GDF15. Briefly: Survival and cachexia in mice bearing LNCaP prostate xenograft, anti-GDF15 antibody plus tivozanib. The note with it: LNCaP xenograft NCR Nude mice. Here is the method:
LNCaP cells were grown in culture at 37° C. in an atmosphere containing 5% CO2, using RPMI-1640 Medium (ATCC® 30-2001™) containing 10% FBS. Cells were inoculated subcutaneously into the flank of 8-week old female NCR Nude mice with 5×10^6 cells per mouse in 50% matrigel. When tumor size reached 500 mm^3, the mice were randomized into three groups of ten mice each. Each group received one of the following treatments: (1) murine immunoglobulin G (20 mpk) and vehicle (Control); (2) murine anti-GDF15 antibody 14F11 (20 mpk) and tivozanib (5 mpk); or (3) murine immunoglobulin G (20 mpk) and tivozanib (5 mpk). Antibodies were administered every 3 days by intra-peritoneal injection, tivozanib and vehicle control was administered daily by oral gavage. Body weight and tumor size were measured daily. Mice were evaluated daily and if any of the following criteria were achieved, animals were sacrificed: a) tumor size larger than 2,000 mm^3; b) body weight loss greater than 20%; c) moribund.
In the absence of GDF15 inhibition, 70% of the mice die due to cachexia over a period of 30 days, even in the presence of anti-cancer treatment.

Where two headings read alike, the source gives them in different places.

As for `N.N.O=C([O-])C1(C(=O)[O-])CCC1.[Pt+2]` [carboplatin], the “mice died due to cachexia caused by carboplatin” value on GDF15 [1] (carboplatin 60 mpk i.p. Day 0 and Day 3 + vehicle, over 8 days) was 80%. The body weight loss on GDF15 [1] (carboplatin 60 mpk i.p., on Day 2, before randomization) is 8%.
For the molecule `N.N.[Cl][Pt][Cl]` [cisplatin], the “mice die due to cachexia caused by cisplatin” value on GDF15 [2] is listed as 80%.
Regarding `O=C1[O][Pt]2([NH][C@@H]3CCCC[C@H]3[NH]2)[O]C1=O` [oxaliplatin], on GDF15 [3] (oxaliplatin 3 mpk i.p. daily + vehicle, over 10 days), the “mice die due to cachexia caused by oxaliplatin” value came out at 45%. In addition, on GDF15 [3] (oxaliplatin 3 mpk i.p. daily, on Day 3, before randomization), the body weight loss was determined as 8%.
For the molecule `COc1cc2nccc(Oc3ccc(NC(=O)Nc4cc(C)on4)c(Cl)c3)c2cc1OC` [tivozanib], the “effect on tumor growth” value with GDF15 [4] (tivozanib 5 mpk daily oral) is “slows down tumor growth”. In the data set with GDF15 [4] (tivozanib 5 mpk daily oral gavage + murine IgG 20 mpk, absence of GDF15 inhibition, over 30 days), the “mice die due to cachexia” value is 70%.

B1: 14F11: murine anti-GDF15 antibody; light chain SEQ ID NO: 34, heavy chain SEQ ID NO: 53 (antibody)
heavy: QVTLKESGPGILQPSQTLSLTCSFSGFSLSTYGMGVGWIRQPSGKGLEWLADIWWDDDKYYNPSLKSRLTISKDTSSNEVFLKIAIVDTADTATYYCARRGHYSAMDYWGQGTSVTVSSAKTTPPSVYPLAPGSAAQTNSMVTLGCLVKGYFPEPVTVTWNSGSLSSGVHTFPAVLQSDLYTLSSSVTVPSSTWPSETVTCNVAHPASSTKVDKKIVPRDCGCKPCICTVPEVSSVFIFPPKPKDVLTITLTPKVTCVVVDISKDDPEVQFSWFVDDVEVHTAQTQPREEQFNSTFRSVSELPIMHQDWLNGKEFKCRVNSAAFPAPIEKTISKTKGRPKAPQVYTIPPPKEQMAKDKVSLTCMITDFFPEDITVEWQWNGQPAENYKNTQPIMDTDGSYFVYSKLNVQKSNWEAGNTFTCSVLHEGLHNHHTEKSLSHSPGK
light: DIVMTQSQKFMSTSVGDRVSVTCKASQNVGTNVAWYQQKPGQSPKALIYSPSYRYSGVPDRFTGSGSGTDFTLTISNVQSEDLAEYFCQQYNSYPHTFGGGTKLEMKRADAAPTVSIFPPSSEQLTSGGASVVCFLNNFYPKDINVKWKIDGSERQNGVLNSWTDQDSKDSTYSMSSTLTLTKDEYERHNSYTCEATHKTSTSPIVKSFNRNEC
In the case of B1, in the data set on GDF15 [4] (14F11 20 mpk + tivozanib 5 mpk, 30 day period), the anti-tumor effect entry is listed as “effective anti-tumor treatment”. In addition, in the data set on GDF15 [4] (14F11 20 mpk + tivozanib 5 mpk, 30 days), the effect on cachexia entry is “reverses cachexia”. For the same molecule, in the data set with GDF15 [4] (14F11 20 mpk i.p. every 3 days + tivozanib 5 mpk daily oral, over 30 day period, FIG. 1), the sustained survival was 100%.

For the origin of these results see patent US20230295285A1, “METHODS OF REVERSING CACHEXIA AND PROLONGING SURVIVAL COMPRISING ADMINISTERING A GDF15 MODULATOR AND AN ANTI-CANCER AGENT” (AVEO Pharmaceuticals, Inc., priority 2014, published 2023).
